This note sets out measurements from patent US12662489B2 (Sitryx Therapeutics Limited, priority 2023, dated 2026).

Assay [1] has as its target T1, MTHFD1 recombinant human enzyme (Homo sapiens, UniProt P11586).
T1 sequence (P11586 2-291 limits assumed): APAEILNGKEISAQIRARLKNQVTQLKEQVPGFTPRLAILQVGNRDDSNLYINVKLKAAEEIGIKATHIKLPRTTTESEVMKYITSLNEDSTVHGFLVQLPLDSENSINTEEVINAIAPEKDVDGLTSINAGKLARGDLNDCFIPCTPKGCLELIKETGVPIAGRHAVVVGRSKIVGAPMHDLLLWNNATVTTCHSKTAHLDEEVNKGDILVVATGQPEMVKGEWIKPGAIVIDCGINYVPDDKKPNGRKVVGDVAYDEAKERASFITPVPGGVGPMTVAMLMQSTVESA
The assay can be described thus: MTHFD1 inhibition assay (NAD(P)H-Glo luminescence). To be noted: MTHFD1 IC50, recombinant human enzyme 200 nM, NADP, band.

Assay [2] deals with T2, MTHFD2 recombinant human enzyme (Homo sapiens, UniProt P13995).
T2 sequence (P13995 36-350): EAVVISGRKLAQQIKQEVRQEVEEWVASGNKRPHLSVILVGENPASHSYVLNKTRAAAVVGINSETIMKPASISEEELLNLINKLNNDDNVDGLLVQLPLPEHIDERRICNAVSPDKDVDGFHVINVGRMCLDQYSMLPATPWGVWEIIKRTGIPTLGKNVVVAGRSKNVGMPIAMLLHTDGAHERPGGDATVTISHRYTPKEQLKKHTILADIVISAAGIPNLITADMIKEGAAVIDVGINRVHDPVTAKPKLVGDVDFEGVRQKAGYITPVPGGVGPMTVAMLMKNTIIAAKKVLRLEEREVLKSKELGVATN
Description: MTHFD2 inhibition assay (NAD(P)H-Glo luminescence). To be noted: for MTHFD1/MTHFD2 IC50 ratio: selectivity of MTHFD2 inhibition over MTHFD1, band.

What is called IC50 is the concentration that inhibits the measured activity by half. Take `COC[C@H]1CN(c2ccc3c4c(c(=O)oc3c2C)CN(C(=O)c2cc(N3CC5CC5C3)c(C(=O)NS(=O)(=O)N(C)C)c(C(F)(F)F)c2)CC4)CCN1C` (stereo partly drawn) [Example 118, 2-(3-azabicyclo[3.1.0]hexan-3-yl)-N-(N,N-dimethylsulfamoyl)-4-(8-((R)-3-(methoxymethyl)-4-methylpiperazin-1-yl)-7-methyl-5-oxo-1,3,4,5-tetrahydro-2H-chromeno[3,4-c]pyridine-3-carbonyl)-6-(trifluoromethyl)benzamide]: the IC50 in assay [1] lay in the range of 1000 to 5000 nM; in assay [2] it was 100 to 1000 nM. Further, in assay [2], the “MTHFD1/MTHFD2 IC50 ratio” value is reported as “H (>9.0 to 30)”.

With `COC[C@H]1CN(c2cc(C)c3c4c(c(=O)oc3c2C)CN(C(=O)c2cc(C(=O)NS(=O)(=O)N3CCCC3)c(OC3CCC3)cc2F)CC4)CCN1C` [Example 165, (R)-2-cyclobutoxy-4-fluoro-5-(8-(3-(methoxymethyl)-4-methylpiperazin-1-yl)-7,10-dimethyl-5-oxo-1,3,4,5-tetrahydro-2H-chromeno[3,4-c]pyridine-3-carbonyl)-N-(pyrrolidin-1-ylsulfonyl)benzamide], in assay [1], the IC50 was more than 5000 nM. Besides, in assay [2], the IC50 was in the range of 100 to 1000 nM and the “MTHFD1/MTHFD2 IC50 ratio” value is “H (>9.0 to 30)”.

With `COC[C@H]1CN(c2cc(C)c3c4c(c(=O)oc3c2C)CN(C(=O)c2ccc(C(=O)NS(=O)(=O)N(C)C)c(N3C5CCC3CC5)c2)CC4)CCN1C` [Example 49, (R)-2-(7-azabicyclo[2.2.1]heptan-7-yl)-N-(N,N-dimethylsulfamoyl)-4-(8-(3-(methoxymethyl)-4-methylpiperazin-1-yl)-7,10-dimethyl-5-oxo-1,3,4,5-tetrahydro-2H-chromeno[3,4-c]pyridine-3-carbonyl)benzamide], in assay [1], the IC50 lay in the range of 1 to 10 nM. For the same compound, in assay [2], the IC50 was 1 to 10 nM and the “MTHFD1/MTHFD2 IC50 ratio” value was “F (<3)”.

Take `COC[C@H]1CN(c2cc(Cl)c3c4c(c(=O)oc3c2C)CN(C(=O)c2cc(N(C)C)c(C(=O)NS(=O)(=O)N3CCC[C@H]3C(F)(F)F)cc2F)CC4)CCN1C` [Example 295, 4-(10-chloro-8-((R)-3-(methoxymethyl)-4-methylpiperazin-1-yl)-7-methyl-5-oxo-1,3,4,5-tetrahydro-2H-chromeno[3,4-c]pyridine-3-carbonyl)-2-(dimethylamino)-5-fluoro-N-(((S)-2-(trifluoromethyl)pyrrolidin-1-yl)sulfonyl)benzamide]: the IC50 in assay [1] lay within 1000 to 5000 nM. Besides, in assay [2], the IC50 is 10 to 100 nM and the “MTHFD1/MTHFD2 IC50 ratio” value is recorded as “J (>30)”.

With `COC[C@H]1CN(c2cc(C)c3c4c(c(=O)oc3c2C)CN(C(=O)c2cc(N(C)C)c(C(=O)NS(=O)(=O)N3CCCC3)cc2C(F)(F)F)CC4)CCN1C` [Example 152, (R)-2-(dimethylamino)-4-(8-(3-(methoxymethyl)-4-methylpiperazin-1-yl)-7,10-dimethyl-5-oxo-1,3,4,5-tetrahydro-2H-chromeno[3,4-c]pyridine-3-carbonyl)-N-(pyrrolidin-1-ylsulfonyl)-5-(trifluoromethyl)benzamide], the IC50 in assay [1] is more than 5000 nM. For the same compound, in assay [2], the IC50 lay within 100 to 1000 nM and the “MTHFD1/MTHFD2 IC50 ratio” value is “H (>9.0 to 30)”.

For the compound `COC[C@H]1CN(c2cc(C)c3c4c(c(=O)oc3c2C)CN(C(=O)c2ccc(C(=O)NS(=O)(=O)N(C)C)c(OC3CCC3)c2F)CC4)CCN1C` [Example 51, (R)-2-cyclobutoxy-N-(N,N-dimethylsulfamoyl)-3-fluoro-4-(8-(3-(methoxymethyl)-4-methylpiperazin-1-yl)-7,10-dimethyl-5-oxo-1,3,4,5-tetrahydro-2H-chromeno[3,4-c]pyridine-3-carbonyl)benzamide], the IC50 in assay [1] fell in the range of 1 to 10 nM. In assay [2], the IC50 was 1 to 10 nM and the “MTHFD1/MTHFD2 IC50 ratio” value is given as “F (<3)”.

With `COC[C@H]1CN(c2cc(C)c3c4c(c(=O)oc3c2)CN(C(=O)c2ccc(C(=O)NS(=O)(=O)N3CCCC3)c(OC3CCCC3)c2F)CC4)CCN1C` [Example 187, (R)-2-(cyclopentyloxy)-3-fluoro-4-(8-(3-(methoxymethyl)-4-methylpiperazin-1-yl)-10-methyl-5-oxo-1,3,4,5-tetrahydro-2H-chromeno[3,4-c]pyridine-3-carbonyl)-N-(pyrrolidin-1-ylsulfonyl)benzamide], the IC50 in assay [1] was more than 5000 nM. In assay [2], the IC50 was 100 to 1000 nM and the “MTHFD1/MTHFD2 IC50 ratio” value is listed as “H (>9.0 to 30)”.

Take `COC[C@H]1CN(c2cc(C)c3c4c(c(=O)oc3c2C)CN(C(=O)c2ccc(C(=O)NS(=O)(=O)C3(C)CC3)c(OC3CCC3)c2F)CC4)CCN1C` [Example 41, (R)-2-cyclobutoxy-3-fluoro-4-(8-(3-(methoxymethyl)-4-methylpiperazin-1-yl)-7,10-dimethyl-5-oxo-1,3,4,5-tetrahydro-2H-chromeno[3,4-c]pyridine-3-carbonyl)-N-((1-methylcyclopropyl)sulfonyl)benzamide]: the IC50 in assay [1] lay within 1 to 10 nM. Besides, in assay [2], the IC50 was 1 to 10 nM and the “MTHFD1/MTHFD2 IC50 ratio” value is given as “G (^ 3 to 9.0)”.

Take `COC[C@H]1CN(c2cc(C)c3c4c(c(=O)oc3c2C)CN(C(=O)c2ccc(C(=O)NS(=O)(=O)C3(C)CC3)c(N3CCC(F)(F)C3)c2)CC4)CCN1C` [Example 81, (R)-2-(3,3-difluoropyrrolidin-1-yl)-4-(8-(3-(methoxymethyl)-4-methylpiperazin-1-yl)-7,10-dimethyl-5-oxo-1,3,4,5-tetrahydro-2H-chromeno[3,4-c]pyridine-3-carbonyl)-N-((1-methylcyclopropyl)sulfonyl)benzamide]: the IC50 in assay [1] is 10 to 100 nM; in assay [2], 1 to 10 nM.

On to `COC[C@H]1CN(c2ccc3c4c(c(=O)oc3c2C)CN(C(=O)c2ccc(C(=O)NS(=O)(=O)N(C)C(C)C)c(OC3CCC3)c2F)CC4)CCN1C` [Example 56, (R)-2-cyclobutoxy-3-fluoro-N-(N-isopropyl-N-methylsulfamoyl)-4-(8-(3-(methoxymethyl)-4-methylpiperazin-1-yl)-7-methyl-5-oxo-1,3,4,5-tetrahydro-2H-chromeno[3,4-c]pyridine-3-carbonyl)benzamide], for which the IC50 in assay [1] and in assay [2] was 1 to 10 nM each time. Besides, the “MTHFD1/MTHFD2 IC50 ratio” value in assay [2] was “F (<3)”.

As to `CCc1c(C(=O)NS(=O)(=O)N2C3CCC2CC3)ccc(C(=O)N2CCc3c(c(=O)oc4c(C)c(N5CCN(C)[C@@H](COC)C5)cc(C)c34)C2)c1F` [Example 242], the IC50 in assay [1] lay within 100 to 1000 nM; in assay [2] it was 10 to 100 nM. Besides, in assay [2], the “MTHFD1/MTHFD2 IC50 ratio” value is reported as “H (>9.0 to 30)”.

As to `COC[C@H]1CN(c2ccc3c4c(c(=O)oc3c2C)CN(C(=O)c2cc(F)c(C(=O)NS(=O)(=O)N(C)C)c(N3C5CCC3CC5)c2)CC4)CCN1C` [Example 23, (R)-2-(7-azabicyclo[2.2.1]heptan-7-yl)-N-(N,N-dimethylsulfamoyl)-6-fluoro-4-(8-(3-(methoxymethyl)-4-methylpiperazin-1-yl)-7-methyl-5-oxo-1,3,4,5-tetrahydro-2H-chromeno[3,4-c]pyridine-3-carbonyl)benzamide], the IC50 in assay [1] and in assay [2] was 1 to 10 nM in each case. Besides, the “MTHFD1/MTHFD2 IC50 ratio” value in assay [2] was “F (<3)”.

`COC[C@H]1CN(c2cc(Cl)c3c4c(c(=O)oc3c2C)CN(C(=O)c2cc(N(C)C)c(C(=O)NS(=O)(=O)N(C3CC3)C3CC3)cc2F)CC4)CCN1C` [Example 277, (R)-4-(10-chloro-8-(3-(methoxymethyl)-4-methylpiperazin-1-yl)-7-methyl-5-oxo-1,3,4,5-tetrahydro-2H-chromeno[3,4-c]pyridine-3-carbonyl)-N-(N,N-dicyclopropylsulfamoyl)-2-(dimethylamino)-5-fluorobenzamide]: the IC50 in assay [1] was in the range of 100 to 1000 nM; in assay [2] it was 10 to 100 nM. Further, in assay [2], the “MTHFD1/MTHFD2 IC50 ratio” value is “H (>9.0 to 30)”.

On to `CCOc1c(C(=O)NS(=O)(=O)N2CC3CC3C2)ccc(C(=O)N2CCc3c(c(=O)oc4c(Cl)c(N5CCN(C)[C@@H](COC)C5)ccc34)C2)c1F` (stereo partly drawn) [Example 208, N-((3-azabicyclo[3.1.0]hexan-3-yl)sulfonyl)-4-(7-chloro-8-((R)-3-(methoxymethyl)-4-methylpiperazin-1-yl)-5-oxo-1,3,4,5-tetrahydro-2H-chromeno[3,4-c]pyridine-3-carbonyl)-2-ethoxy-3-fluorobenzamide], for which the IC50 in assay [1] and in assay [2] was 10 to 100 nM each time. Further, in assay [2], the “MTHFD1/MTHFD2 IC50 ratio” value is “F (<3)”.

For `COC[C@H]1CN(c2cc(C)c3c4c(c(=O)oc3c2C)CN(C(=O)c2ccc(C(=O)NS(=O)(=O)N(C)C)c(OC)c2F)CC4)CCN1C` [Example 134, (R)-N-(N,N-dimethylsulfamoyl)-3-fluoro-2-methoxy-4-(8-(3-(methoxymethyl)-4-methylpiperazin-1-yl)-7,10-dimethyl-5-oxo-1,3,4,5-tetrahydro-2H-chromeno[3,4-c]pyridine-3-carbonyl)benzamide], the IC50 in assay [1] lay within 10 to 100 nM. Further, in assay [2], the IC50 lay within 10 to 100 nM and the “MTHFD1/MTHFD2 IC50 ratio” value is “G (^ 3 to 9.0)”.
